# Reference: patent US12258339B2, “Macrocyclic complexes of alpha-emitting radionuclides and their use in targeted radiotherapy of cancer” (Cornell University, priority 2018, dated 2025)
# Experiment: Kinetic inertness of [^225Ac(macropa)]^+: challenge with 50-fold excess La^3+
# Assay type: physicochemical
# Conditions: 50-fold excess of La^3+, macropa 0.59 μM, RT, over 7 days
# Description: General. Stock solutions of La(NO3)3 (0.001 M or 0.1 M) were prepared in H2O. To the radiolabeled samples containing macropa (10 μL of 10^−5 M stock; 1.0×10^−10 moles) or DOTA (10 μL of 10^−3 M stock; 1.0×10^−8 moles) and ^225Ac (10 μL, 26 kBq) in NH4OAc buffer (pH 6, 0.15 M, 150 μL), a 50-fold mole excess of La^3+ was added (5 μL, of 0.001 M or 0.1 M stock were added to solutions containing macropa and DOTA, respectively). The solutions were kept at room temperature and analyzed by iTLC at several time points over the course of 8 days. The iTLC plates were developed using citric acid (0.05 M, pH 5) as the eluent. Under these conditions, [^225Ac(macropa)]^+ and [^225Ac(DOTA)]^− remained at the baseline (RF=0) and any unchelated ^225Ac (^225Ac-citrate) migrated with the solvent front (RF=1). Percent of complex remaining intact was calculated by integrating area under the peaks on the radiochromatogram and dividing the counts associated with the ^225Ac-complex (RF=0) by the total counts integrated along the length of the iTLC plate.
# The long half-life of ^225Ac necessitates its stable complex retention in vivo to avoid off-target damage to normal tissues arising from the release of free ^225Ac^3+. Furthermore, the stability of ^225Ac complexes against transmetalation and transchelation needs to be high. […]
smiles,measurement,value
O=C([O-])c1cccc(CN2CCOCCOCCN(Cc3cccc(C(=O)[O-])n3)CCOCCOCC2)n1.[225Ac+3] [[^225Ac(macropa)]^+],^225Ac complex remained intact by radio-TLC,98%
